Laboratory results taken from article PMC10643470, “Knockout or inhibition of USP30 protects dopaminergic neurons in a Parkinson’s disease mouse model” (Nature Communications, 2023).
“And” between values parts separate entries of the source, which are not always exact repeats. Equal entries are not always repeated. “Also recorded” adds a separate entry of the source. Where two headings read alike, the source gives them in different places.

Key:
[1] = system: TOM20 ubiquitylation in HeLa cells overexpressing PARKIN; assay: Cell TOM20 ubiquitination assay (HeLa YFP-Parkin + A/O); type: cell-based, human; settings: for EC50: Homo sapiens, 1.5 h
Protocol: Hela cells overexpressing YFP-Parkin were treated with 1 µM Antimycin A and 1 µM Oligomycin A (AA/OA) and test compound or DMSO for 90 mins. Following treatment, media was removed, and cells were washed in DPBS and then lysed in NP40 lysis buffer on ice. […] The bands corresponding to all forms of ubiquitylated TOM20 were quantified and normalized to the same bands for AA/OA treated cells.

[2] = system: TOM20-ubiquitylation in alpha-synuclein A53T mutated iPSC-derived dopaminergic neurons; assay: TOM20-ubiquitylation in A53T iPSC-derived dopaminergic neurons; type: cell-based, human; settings: no exogenous stimuli
Description: Donor-derived DopaNeuron lines were generated from source material provided by the Parkinson’s Progression Markers Initiative (PPMI) through The Michael J. Fox Foundation. Human iPS cells-derived DopaNeurons were purchased from Fujifilm/Cellular Dynamics. Apparently healthy normal (AHN) (catalog # R1088) or alpha-synuclein A53T mutated (A53T) (catalog # R1109) iPSC-derived dopaminergic neurons (dopaneurons) were thawed from liquid nitrogen. 400 000 viable (counted using a cell counter) dopaneurons […] were plated per well into 24 well plates on day 0 in complete maintenance medium (CMM).
A half-medium change was performed on the cells on Day 3 with CMM. On Day 5 cells were half-medium changed with complete brainphys medium. […] Cells were given half medium changes with or without compounds (depending on whether treatments with compound had started) every 2-3 days.

[3] = system: SH-SY5Y mito-QC cells; assay: Mitophagy (mito-QC) live imaging in SH-SY5Y cells; type: cell-based, human
Protocol: SH-SY5Y cells stably expressing mCherry-GFP-Fis1101-152 reporter (SH-SY5Y mito-QC) kindly provided by Dr I Ganley (MRC PPU, Dundee) were cultured in DMEM/F12 media supplemented with 1% L-glutamine, 1% penicillin/streptomycin, 1% non-essential amino acids, 10% fetal bovine serum at 37 °C and 5% CO2.
For inhibitor studies, live imaging was applied to mitophagy puncta analysis in SH-SY5Y mito-QC cells. SH-SY5Y mito-QC cells were plated overnight at 7000 cells/well into black walled PhenoPlate 96-well microplates in DMEM/F-12 (phenol red free) supplemented as above. SH-SY5Y mito-QC cells were incubated with NucBlue™ live stain for 20 mins then washed. […] Cells were live imaged using the Operetta CLS Type HH1600 (optical mode set to confocal, 40x water objective) at timepoints 0 h, 4 h, 20 h, 24 h, 48 h and 72 h. Images were acquired using the following channel settings: mCherry; excitation 530/60 nm, emission 570/650 nm, GFP; excitation 460/90 nm, emission 500/650 nm, Hoechst; excitation 355/85 nm, emission 430/500 nm. For all conditions tested, quantification of mitophagy was performed from three independent experiments (with three technical replicates capturing 11 fields of views, 6 z-stacks).
Image Quantification: For analysis of mitophagy, images were processed with the Harmony analysis software using the “SH-SY5Y-mito-QC_analysis 2” sequence. For mitolysosome identification the following analysis steps were performed: (1) Identification of the cell nuclei using Hoechst staining, (2) Identification of the cell cytoplasm using a deep phase contrast (DPC) image, (3) Identification of the mitochondrial network, using the Ser-Bright function on the mCherry channel within the cytoplasm, (4) Mitochondrial network partitioning using the FindSpots function, (5) Identification of mitophagic puncta with the partitioned mitochondrial network, using an mCherry:GFP ratio threshold of mean >+3 standard deviations from the 24 h DMSO only treated cells.

[4] = system: AAV-A53T-SNCA PD mouse model; assay: TH+ neuron counting in SNpc, AAV-A53T-SNCA mouse model (compound study); type: in vivo
Description: For the compound study, the fixed, cryoprotected and frozen midbrain samples were sectioned as coronal sections at 100 µm intervals through SNpc and ventral tegmental area (VTA) and mounted on glass slides. Sectioning was started at −2.6 mm from bregma and continued to −3.7 mm from bregma in the AP axis (coordinates based on Franklin & Paxinos: The Mouse Brain in Stereotaxic Coordinates). For the immunostaining, the sections were stained with anti-TH following permeabilization. The stained sections were scanned with the Olympus VS120 slide scanner and analyzed with a VIS-Visiopharm Integrator System (Visiopharm, Denmark) by a blinded data analyst. All cells of interest with visible nuclei were labeled manually and counted using an APP (Analysis Protocol Package), scaled by section thickness and sectioning interval to estimate the total cell population in the SNpc. For immunostaining of Ser129 αSyn phosphorylation, TSA amplification was used with primary antibody ab51253 (Abcam). Blinded analysis was used, and positive cells per area were determined. For dual IF IHC of Iba1 (WAKO) and GFAP (ab4674 – Abcam), the stained sections were scanned and analyzed by a blinded data analyst. Analysis determines the percentage of positive staining area [%area = (stained area/region area) * (100)]. To calculate % of stained area, the same threshold value was applied to all sections with the same antibody staining. All pixels above the threshold value were considered positive. All striatal densitometry and neuronal counting data for both KO and inhibitor studies were obtained by an investigator blinded to genotype and treatment.

[5] = molecular target: USP8 (Homo sapiens, UniProt P40818); assay: DUB/cathepsin selectivity biochemical assay
USP8, sequence (P40818 whole entry, species assumed): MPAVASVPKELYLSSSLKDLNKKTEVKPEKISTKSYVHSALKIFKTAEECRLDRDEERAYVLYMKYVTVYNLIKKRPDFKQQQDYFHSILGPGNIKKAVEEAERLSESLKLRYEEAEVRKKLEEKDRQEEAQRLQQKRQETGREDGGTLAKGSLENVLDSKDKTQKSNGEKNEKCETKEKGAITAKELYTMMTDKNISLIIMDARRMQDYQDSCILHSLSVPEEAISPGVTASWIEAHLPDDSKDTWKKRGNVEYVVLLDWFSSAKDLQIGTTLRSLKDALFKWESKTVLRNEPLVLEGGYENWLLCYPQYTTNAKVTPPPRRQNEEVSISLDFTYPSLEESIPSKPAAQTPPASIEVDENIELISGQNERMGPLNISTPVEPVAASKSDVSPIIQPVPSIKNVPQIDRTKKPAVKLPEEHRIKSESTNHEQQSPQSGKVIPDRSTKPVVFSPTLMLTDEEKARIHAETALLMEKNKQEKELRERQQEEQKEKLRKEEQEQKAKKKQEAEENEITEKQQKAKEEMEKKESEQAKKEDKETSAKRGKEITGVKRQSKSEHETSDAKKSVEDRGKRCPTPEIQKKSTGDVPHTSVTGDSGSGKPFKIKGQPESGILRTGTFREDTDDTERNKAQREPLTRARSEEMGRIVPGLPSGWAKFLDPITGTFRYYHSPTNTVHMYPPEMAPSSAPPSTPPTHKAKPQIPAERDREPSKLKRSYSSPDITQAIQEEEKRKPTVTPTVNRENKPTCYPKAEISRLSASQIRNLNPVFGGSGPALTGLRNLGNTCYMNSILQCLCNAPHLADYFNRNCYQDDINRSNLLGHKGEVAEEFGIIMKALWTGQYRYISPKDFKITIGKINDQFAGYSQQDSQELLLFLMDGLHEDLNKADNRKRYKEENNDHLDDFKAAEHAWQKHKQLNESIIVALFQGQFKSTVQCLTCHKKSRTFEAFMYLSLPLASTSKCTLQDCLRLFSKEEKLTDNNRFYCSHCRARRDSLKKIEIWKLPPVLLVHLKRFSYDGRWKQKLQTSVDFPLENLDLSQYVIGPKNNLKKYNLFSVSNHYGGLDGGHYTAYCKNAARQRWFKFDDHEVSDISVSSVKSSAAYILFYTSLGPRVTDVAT

[6] = molecular target: MINDY3 (Homo sapiens, UniProt Q9H8M7); assay: DUB/cathepsin selectivity biochemical assay
MINDY3, sequence (Q9H8M7 whole entry, species assumed): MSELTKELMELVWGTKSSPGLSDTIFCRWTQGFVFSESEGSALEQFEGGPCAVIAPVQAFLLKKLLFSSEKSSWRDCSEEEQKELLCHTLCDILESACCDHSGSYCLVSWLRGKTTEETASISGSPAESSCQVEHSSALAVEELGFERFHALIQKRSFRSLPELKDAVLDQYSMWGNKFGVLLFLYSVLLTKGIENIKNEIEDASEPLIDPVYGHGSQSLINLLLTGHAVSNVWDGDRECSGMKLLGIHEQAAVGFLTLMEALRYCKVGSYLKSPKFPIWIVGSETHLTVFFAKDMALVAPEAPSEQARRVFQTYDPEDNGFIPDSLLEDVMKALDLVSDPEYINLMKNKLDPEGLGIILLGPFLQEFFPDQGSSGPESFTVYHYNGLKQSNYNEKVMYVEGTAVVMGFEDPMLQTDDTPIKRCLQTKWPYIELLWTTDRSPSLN

[7] = molecular target: UchL5 (Homo sapiens, UniProt Q9Y5K5); assay: DUB/cathepsin selectivity biochemical assay
UchL5, sequence (Q9Y5K5 whole entry, species assumed): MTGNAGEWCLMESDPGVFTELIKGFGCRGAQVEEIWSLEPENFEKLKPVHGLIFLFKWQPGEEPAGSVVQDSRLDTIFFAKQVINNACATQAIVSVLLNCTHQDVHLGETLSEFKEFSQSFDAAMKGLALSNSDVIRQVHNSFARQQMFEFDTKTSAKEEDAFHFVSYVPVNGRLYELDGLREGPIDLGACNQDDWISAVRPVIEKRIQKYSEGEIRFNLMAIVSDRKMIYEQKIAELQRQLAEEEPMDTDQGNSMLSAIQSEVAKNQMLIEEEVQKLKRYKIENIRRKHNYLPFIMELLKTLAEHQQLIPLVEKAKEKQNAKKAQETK

[8] = molecular target: BAP1 (Homo sapiens, UniProt Q92560); assay: DUB/cathepsin selectivity biochemical assay
BAP1, sequence (Q92560 whole entry): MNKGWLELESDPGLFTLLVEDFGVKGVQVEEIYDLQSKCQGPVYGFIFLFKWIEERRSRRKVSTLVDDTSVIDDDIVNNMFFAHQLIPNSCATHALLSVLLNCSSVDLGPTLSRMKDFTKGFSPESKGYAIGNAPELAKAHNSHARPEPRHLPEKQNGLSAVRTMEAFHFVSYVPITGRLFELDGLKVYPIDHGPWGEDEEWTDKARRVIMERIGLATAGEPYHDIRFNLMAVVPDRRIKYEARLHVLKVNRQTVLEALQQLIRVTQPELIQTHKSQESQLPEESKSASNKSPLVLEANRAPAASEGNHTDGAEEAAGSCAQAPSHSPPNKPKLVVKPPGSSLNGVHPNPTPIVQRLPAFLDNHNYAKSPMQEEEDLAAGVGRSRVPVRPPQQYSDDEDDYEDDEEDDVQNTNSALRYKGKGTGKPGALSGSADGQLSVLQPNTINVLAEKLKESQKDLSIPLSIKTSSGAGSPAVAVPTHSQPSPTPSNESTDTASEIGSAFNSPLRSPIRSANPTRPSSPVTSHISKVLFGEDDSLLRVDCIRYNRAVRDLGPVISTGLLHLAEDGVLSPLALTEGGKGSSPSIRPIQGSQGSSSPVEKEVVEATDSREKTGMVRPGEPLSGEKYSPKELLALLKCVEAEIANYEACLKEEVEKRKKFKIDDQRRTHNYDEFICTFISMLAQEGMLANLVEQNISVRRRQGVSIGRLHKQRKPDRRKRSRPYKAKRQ

[9] = molecular target: OTUD5(p177S) (Homo sapiens, UniProt Q96G74); assay: DUB/cathepsin selectivity biochemical assay
OTUD5(p177S), sequence (Q96G74 whole entry, species assumed): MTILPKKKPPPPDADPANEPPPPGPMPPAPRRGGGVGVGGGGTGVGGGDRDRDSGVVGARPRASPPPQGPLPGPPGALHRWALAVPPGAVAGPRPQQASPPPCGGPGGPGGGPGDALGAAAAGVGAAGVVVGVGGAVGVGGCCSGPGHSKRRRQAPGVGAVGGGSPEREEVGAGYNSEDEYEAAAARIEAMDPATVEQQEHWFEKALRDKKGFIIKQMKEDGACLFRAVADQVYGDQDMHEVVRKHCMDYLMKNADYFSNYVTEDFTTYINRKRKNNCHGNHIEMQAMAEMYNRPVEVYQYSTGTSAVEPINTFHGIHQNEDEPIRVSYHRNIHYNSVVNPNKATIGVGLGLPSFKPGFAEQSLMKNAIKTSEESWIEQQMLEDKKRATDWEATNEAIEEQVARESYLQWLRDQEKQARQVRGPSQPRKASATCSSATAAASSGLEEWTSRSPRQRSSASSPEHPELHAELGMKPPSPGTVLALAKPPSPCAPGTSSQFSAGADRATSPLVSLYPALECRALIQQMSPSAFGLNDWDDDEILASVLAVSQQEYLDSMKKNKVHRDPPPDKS

[10] = molecular target: T1, OTUD3 CD (Homo sapiens, UniProt Q5T2D3); assay: DUB/cathepsin selectivity biochemical assay
T1 construct: OTUD3 CD
T1 sequence (Q5T2D3 65-189 limits assumed): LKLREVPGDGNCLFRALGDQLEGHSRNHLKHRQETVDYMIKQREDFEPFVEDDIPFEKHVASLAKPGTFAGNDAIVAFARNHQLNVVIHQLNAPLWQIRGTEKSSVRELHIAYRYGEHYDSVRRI

[11] = molecular target: SENP6 (Homo sapiens, UniProt Q9GZR1); assay: DUB/cathepsin selectivity biochemical assay
SENP6, sequence (Q9GZR1 whole entry, species assumed): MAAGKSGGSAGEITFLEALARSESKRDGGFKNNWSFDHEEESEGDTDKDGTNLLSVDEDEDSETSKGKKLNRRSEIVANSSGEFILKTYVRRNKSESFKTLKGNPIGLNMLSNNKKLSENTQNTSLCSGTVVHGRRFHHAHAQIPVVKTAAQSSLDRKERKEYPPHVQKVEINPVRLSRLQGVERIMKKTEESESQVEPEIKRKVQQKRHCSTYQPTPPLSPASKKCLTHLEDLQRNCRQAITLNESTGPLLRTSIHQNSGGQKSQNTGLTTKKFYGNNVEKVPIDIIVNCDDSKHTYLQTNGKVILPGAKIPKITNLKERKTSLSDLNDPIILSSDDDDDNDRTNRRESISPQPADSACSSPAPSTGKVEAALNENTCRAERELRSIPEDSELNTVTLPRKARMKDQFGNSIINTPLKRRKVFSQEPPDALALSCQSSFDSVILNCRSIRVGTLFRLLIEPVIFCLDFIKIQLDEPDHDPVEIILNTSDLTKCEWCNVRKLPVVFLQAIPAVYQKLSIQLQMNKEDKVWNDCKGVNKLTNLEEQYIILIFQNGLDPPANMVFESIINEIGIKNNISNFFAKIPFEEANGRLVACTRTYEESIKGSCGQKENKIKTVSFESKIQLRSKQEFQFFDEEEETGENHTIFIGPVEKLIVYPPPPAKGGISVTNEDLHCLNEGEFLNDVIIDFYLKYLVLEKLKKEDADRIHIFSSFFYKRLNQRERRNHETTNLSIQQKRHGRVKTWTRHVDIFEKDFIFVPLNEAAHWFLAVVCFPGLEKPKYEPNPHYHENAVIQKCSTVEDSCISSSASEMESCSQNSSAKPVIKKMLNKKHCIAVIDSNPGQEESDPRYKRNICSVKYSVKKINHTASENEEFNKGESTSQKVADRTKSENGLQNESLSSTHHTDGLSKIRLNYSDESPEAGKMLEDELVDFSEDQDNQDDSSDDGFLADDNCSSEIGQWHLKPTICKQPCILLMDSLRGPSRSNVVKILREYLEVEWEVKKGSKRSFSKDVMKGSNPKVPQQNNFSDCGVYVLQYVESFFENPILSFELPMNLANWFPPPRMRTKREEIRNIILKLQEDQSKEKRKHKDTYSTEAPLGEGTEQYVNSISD

In the case of `C[C@@H]1[C@H]2CCN(C(=O)c3ncc(-c4ccnc(C#N)c4)o3)[C@H]2CN1C#N` [MTX115325], the “TOM20 ubiquitylation signal, MTX115325 + AO (Figure 4b)” value (from here on “TOM20 ubiquitylation signal”) ([1]; 0.0001 µM) is reported as 1.19, the “TOM20 ubiquitylation signal” value ([1]; 0.0003 µM) is reported as 1.5 and the “TOM20 ubiquitylation signal” value ([1]; 0.001 µM) is reported as 1.43. The “TOM20 ubiquitylation signal” value ([1]; 0.003 µM) was 1.6, the “TOM20 ubiquitylation signal” value ([1]; 0.01 µM) was 2.01 and the “TOM20 ubiquitylation signal” value ([1]; 0.03 µM) was 2.55. For the same compound, the “TOM20 ubiquitylation signal” value ([1]; 0.1 µM) was 3.08, the “TOM20 ubiquitylation signal” value ([1]; 0.3 µM) was 3.55 and the “TOM20 ubiquitylation signal” value ([1]; 1 µM) was 3.5. The “TOM20 ubiquitylation signal” value ([1]; 3 µM) was 3.33, the “TOM20-Ub 1.5X interpolated value (representative profile, Fig. 4b)” value ([1]; HeLa cells, 90 min, representative concentration-response) was 0.0020 µM and the “TOM20-Ub EC1.5x” value ([1]; HeLa-PARKIN + A/O, 90 min) was 10 nM. The EC50 ([1]; HeLa cells, 90 min, representative concentration-response, read-out: TOM20-Ub EC50 (representative profile, Fig. 4b)) was 0.022 µM, the EC50 ([1]; HeLa-PARKIN + A/O, 90 min, read-out: TOM20-Ub EC50) was 0.032 µM and the TOM20-ubiquitylation ([2]; A53T neurons, 7 days at 10 nM, 100 nM or 1 µM) was “caused the upregulation of TOM20-ubiquitylation”. The TOM20-ubiquitylation ([2]; A53T αSyn background, 24 h, 1 µM) was “increased TOM20-ubiquitylation”, the Increase in mitophagy ([3]; 37 nM, 72 h, with 0.1 mM A/O as printed) was 22% and the “Maximum increase in mitophagy compared to baseline” value ([3]; 1 µM, 72 h, with 0.1 mM A/O as printed) was 54%. For the same compound, the “Mitophagy (mito-QC)” value ([3]; 72 h in combination with sub-maximal A/O) was “significantly potentiates mitophagy induction; also recorded: concentration-dependent increase in mitophagy”, the “Percentage of ipsilateral vs contralateral TH+ neurons” value ([4]; 50 mg/kg BID oral, 10 weeks, vehicle 61.7%, p 0.029) was 89.08% and the “Percentage of ipsilateral vs contralateral TH+ neurons in SNpc” value ([4]; AAV-A53T-SNCA mice, individual animals) was 43.6893 and 97.2222 and 27.4336 and 125.243 and 125 and 105.063 and 101.25 and 55.1724 and 95.8333 and 93.9394 and 113.861 and 96.0526 and 68.5315 and 98.8095. The “Beneficial effects at lower doses in a subsequent study” value ([4]; lower doses, doses not given, peer review reply) was “not show beneficial effects”, the IC50 [5] was greater than 300 µM and the IC50 [6] was greater than 300 µM. For the same compound, the IC50 [7] was greater than 300 µM, the IC50 [8] was greater than 300 µM and the IC50 [9] was greater than 300 µM. It also gave an IC50 [10] greater than 300 µM and an IC50 [11] greater than 300 µM.
